Data from patent publication US11542240B2, “STK19 inhibitors for treatment of cancer” (TRUSTEES OF BOSTON UNIVERSITY, priority 2018, dated 2023).
Like-named read-outs stand apart in the source and are kept apart here.

Legend:
Experiment in all cases: biochemical
Assay type in all cases: binding
[1] = molecular target: panel of 468 diverse kinases (Homo sapiens, UniProt Q9HBH9); details: MKNK2; 1000 nM; read-out: Percent Control
[2] = molecular target: panel of 468 diverse kinases (Homo sapiens, UniProt P00519, Q252H); details: 1000 nM, read-out: Percent Control
[3] = molecular target: panel of 468 diverse kinases (Homo sapiens, UniProt P19784); details: CSNK2A2; 1000 nM; read-out: Percent Control
[4] = molecular target: panel of 468 diverse kinases (Homo sapiens, UniProt P00533); details: EGFR; 1000 nM; read-out: Percent Control
[5] = molecular target: panel of 468 diverse kinases (Homo sapiens, UniProt Q9Y6E0); details: MST3; 1000 nM; read-out: Percent Control
[6] = molecular target: panel of 468 diverse kinases (Homo sapiens, UniProt Q9NWZ3); details: IRAK4; 1000 nM; read-out: Percent Control
[7] = molecular target: panel of 468 diverse kinases (Homo sapiens, UniProt P42336, C420R); details: PIK3CA(C420R); 1000 nM; read-out: Percent Control
[8] = molecular target: panel of 468 diverse kinases (Homo sapiens, UniProt P00533, L861Q); details: EGFR(L861Q); 1000 nM; read-out: Percent Control
[9] = molecular target: panel of 468 diverse kinases (Homo sapiens, UniProt Q8N752); details: CSNKIV1L; 1000 nM; read-out: Percent Control
[10] = molecular target: panel of 468 diverse kinases (Homo sapiens, UniProt Q9UHD2); details: TBK1; 1000 nM; read-out: Percent Control
[11] = molecular target: panel of 468 diverse kinases (Homo sapiens, UniProt Q9NRP7); details: STK36; 1000 nM; read-out: Percent Control
[12] = molecular target: panel of 468 diverse kinases (Homo sapiens, UniProt Q8N5S9); details: CAMKK1; 1000 nM; read-out: Percent Control
[13] = molecular target: panel of 468 diverse kinases (Homo sapiens, UniProt P49841); details: GSK3B; 1000 nM; read-out: Percent Control
[14] = molecular target: panel of 468 diverse kinases (Homo sapiens, UniProt Q8NEB9); details: VPS34; 1000 nM; read-out: Percent Control
[15] = molecular target: panel of 468 diverse kinases (Homo sapiens, UniProt Q9UM73, C1156Y); details: ALK(C1156Y); 1000 nM; read-out: Percent Control
Sequence of panel of 468 diverse kinases (Homo sapiens, UniProt Q9UM73, C1156Y) (Q9UM73 19-1620 C1156Y limits assumed): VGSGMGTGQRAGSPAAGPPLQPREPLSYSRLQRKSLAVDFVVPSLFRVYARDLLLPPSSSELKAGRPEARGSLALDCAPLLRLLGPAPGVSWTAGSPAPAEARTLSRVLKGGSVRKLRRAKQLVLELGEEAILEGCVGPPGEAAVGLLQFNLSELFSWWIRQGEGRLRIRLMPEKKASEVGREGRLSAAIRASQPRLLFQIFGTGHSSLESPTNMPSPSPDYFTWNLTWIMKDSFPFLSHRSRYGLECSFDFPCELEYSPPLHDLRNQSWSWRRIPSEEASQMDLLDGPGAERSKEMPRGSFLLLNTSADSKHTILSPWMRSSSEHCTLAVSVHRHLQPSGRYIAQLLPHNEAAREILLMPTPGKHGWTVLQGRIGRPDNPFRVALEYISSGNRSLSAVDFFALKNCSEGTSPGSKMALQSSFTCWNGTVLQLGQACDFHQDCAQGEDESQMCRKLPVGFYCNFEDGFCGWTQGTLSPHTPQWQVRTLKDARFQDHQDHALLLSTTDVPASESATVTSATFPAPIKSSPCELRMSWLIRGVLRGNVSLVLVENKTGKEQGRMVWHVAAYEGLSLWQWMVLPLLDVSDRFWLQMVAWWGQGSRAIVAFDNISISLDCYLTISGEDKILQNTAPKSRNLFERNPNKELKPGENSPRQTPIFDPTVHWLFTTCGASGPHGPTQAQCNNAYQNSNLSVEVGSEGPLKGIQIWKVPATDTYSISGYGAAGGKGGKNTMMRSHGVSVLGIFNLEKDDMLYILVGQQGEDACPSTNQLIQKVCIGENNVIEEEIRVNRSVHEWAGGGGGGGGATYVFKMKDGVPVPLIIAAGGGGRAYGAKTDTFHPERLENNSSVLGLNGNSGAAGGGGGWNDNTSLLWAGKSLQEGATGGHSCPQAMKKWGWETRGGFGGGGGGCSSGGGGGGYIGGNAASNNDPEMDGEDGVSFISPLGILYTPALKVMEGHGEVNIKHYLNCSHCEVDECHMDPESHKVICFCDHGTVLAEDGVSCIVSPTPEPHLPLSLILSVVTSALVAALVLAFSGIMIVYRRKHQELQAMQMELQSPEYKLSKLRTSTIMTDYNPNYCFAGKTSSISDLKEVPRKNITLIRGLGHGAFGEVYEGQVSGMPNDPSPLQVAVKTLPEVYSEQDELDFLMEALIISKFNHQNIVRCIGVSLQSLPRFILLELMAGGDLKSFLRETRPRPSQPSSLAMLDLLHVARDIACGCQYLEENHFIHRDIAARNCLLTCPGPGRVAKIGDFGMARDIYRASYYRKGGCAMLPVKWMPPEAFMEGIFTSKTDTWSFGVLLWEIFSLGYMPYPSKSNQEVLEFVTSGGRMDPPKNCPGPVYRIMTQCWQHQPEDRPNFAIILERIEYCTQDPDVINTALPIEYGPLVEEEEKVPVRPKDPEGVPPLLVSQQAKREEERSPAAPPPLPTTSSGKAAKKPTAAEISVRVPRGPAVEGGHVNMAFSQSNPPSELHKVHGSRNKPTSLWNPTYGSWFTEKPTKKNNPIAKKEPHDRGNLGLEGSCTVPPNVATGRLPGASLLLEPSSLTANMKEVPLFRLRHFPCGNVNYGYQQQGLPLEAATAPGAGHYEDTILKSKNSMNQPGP

[16] = molecular target: panel of 468 diverse kinases (Homo sapiens, UniProt O43353); details: RIPK2; 1000 nM; read-out: Percent Control
[17] = molecular target: panel of 468 diverse kinases (Homo sapiens, UniProt Q9UPE1); details: SRPK3; 1000 nM; read-out: Percent Control
[18] = molecular target: panel of 468 diverse kinases (Homo sapiens, UniProt Q9Y463); details: DYRK1B; 1000 nM; read-out: Percent Control
[19] = molecular target: panel of 468 diverse kinases (Homo sapiens, UniProt P21709); details: EPHA1; 1000 nM; read-out: Percent Control
Sequence of panel of 468 diverse kinases (Homo sapiens, UniProt P21709) (P21709 26-976 limits assumed): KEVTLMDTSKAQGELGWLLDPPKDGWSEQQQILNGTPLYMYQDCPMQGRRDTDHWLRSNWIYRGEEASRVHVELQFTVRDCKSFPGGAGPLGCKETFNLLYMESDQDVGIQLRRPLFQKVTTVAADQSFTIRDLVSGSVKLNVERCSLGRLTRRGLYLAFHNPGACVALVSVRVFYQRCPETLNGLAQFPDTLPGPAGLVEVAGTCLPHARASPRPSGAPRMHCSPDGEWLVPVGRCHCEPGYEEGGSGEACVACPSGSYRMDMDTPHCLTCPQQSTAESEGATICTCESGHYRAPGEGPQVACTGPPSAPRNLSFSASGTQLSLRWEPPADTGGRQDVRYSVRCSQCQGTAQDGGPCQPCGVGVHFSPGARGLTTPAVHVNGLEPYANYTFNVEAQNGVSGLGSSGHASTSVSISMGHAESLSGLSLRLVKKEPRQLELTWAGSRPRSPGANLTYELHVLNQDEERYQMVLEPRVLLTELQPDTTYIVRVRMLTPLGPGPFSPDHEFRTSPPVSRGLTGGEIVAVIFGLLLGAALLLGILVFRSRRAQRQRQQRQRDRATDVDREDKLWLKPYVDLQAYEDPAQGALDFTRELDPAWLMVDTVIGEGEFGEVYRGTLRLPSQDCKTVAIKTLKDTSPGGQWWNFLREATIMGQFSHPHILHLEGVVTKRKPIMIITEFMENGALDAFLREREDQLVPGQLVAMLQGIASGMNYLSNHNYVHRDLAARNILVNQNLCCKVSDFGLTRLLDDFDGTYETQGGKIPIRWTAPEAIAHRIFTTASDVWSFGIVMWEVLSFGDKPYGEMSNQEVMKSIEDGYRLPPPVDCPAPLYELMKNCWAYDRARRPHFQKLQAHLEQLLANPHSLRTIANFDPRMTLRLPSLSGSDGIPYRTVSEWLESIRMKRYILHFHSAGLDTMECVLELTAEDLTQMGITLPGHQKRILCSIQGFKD

[20] = molecular target: panel of 468 diverse kinases (Homo sapiens, UniProt P10721, T670I/V559D); details: KIT(V559D,T670I); 1000 nM; read-out: Percent Control
[21] = molecular target: panel of 468 diverse kinases (Homo sapiens, UniProt P46734); details: MEK3; 1000 nM; read-out: Percent Control
[22] = molecular target: panel of 468 diverse kinases (Homo sapiens, UniProt Q86V86); details: PIM3; 1000 nM; read-out: Percent Control
[23] = molecular target: panel of 468 diverse kinases (Homo sapiens, UniProt P08581); details: MET; 1000 nM; read-out: Percent Control
Sequence of panel of 468 diverse kinases (Homo sapiens, UniProt P08581) (P08581 25-1390 limits assumed): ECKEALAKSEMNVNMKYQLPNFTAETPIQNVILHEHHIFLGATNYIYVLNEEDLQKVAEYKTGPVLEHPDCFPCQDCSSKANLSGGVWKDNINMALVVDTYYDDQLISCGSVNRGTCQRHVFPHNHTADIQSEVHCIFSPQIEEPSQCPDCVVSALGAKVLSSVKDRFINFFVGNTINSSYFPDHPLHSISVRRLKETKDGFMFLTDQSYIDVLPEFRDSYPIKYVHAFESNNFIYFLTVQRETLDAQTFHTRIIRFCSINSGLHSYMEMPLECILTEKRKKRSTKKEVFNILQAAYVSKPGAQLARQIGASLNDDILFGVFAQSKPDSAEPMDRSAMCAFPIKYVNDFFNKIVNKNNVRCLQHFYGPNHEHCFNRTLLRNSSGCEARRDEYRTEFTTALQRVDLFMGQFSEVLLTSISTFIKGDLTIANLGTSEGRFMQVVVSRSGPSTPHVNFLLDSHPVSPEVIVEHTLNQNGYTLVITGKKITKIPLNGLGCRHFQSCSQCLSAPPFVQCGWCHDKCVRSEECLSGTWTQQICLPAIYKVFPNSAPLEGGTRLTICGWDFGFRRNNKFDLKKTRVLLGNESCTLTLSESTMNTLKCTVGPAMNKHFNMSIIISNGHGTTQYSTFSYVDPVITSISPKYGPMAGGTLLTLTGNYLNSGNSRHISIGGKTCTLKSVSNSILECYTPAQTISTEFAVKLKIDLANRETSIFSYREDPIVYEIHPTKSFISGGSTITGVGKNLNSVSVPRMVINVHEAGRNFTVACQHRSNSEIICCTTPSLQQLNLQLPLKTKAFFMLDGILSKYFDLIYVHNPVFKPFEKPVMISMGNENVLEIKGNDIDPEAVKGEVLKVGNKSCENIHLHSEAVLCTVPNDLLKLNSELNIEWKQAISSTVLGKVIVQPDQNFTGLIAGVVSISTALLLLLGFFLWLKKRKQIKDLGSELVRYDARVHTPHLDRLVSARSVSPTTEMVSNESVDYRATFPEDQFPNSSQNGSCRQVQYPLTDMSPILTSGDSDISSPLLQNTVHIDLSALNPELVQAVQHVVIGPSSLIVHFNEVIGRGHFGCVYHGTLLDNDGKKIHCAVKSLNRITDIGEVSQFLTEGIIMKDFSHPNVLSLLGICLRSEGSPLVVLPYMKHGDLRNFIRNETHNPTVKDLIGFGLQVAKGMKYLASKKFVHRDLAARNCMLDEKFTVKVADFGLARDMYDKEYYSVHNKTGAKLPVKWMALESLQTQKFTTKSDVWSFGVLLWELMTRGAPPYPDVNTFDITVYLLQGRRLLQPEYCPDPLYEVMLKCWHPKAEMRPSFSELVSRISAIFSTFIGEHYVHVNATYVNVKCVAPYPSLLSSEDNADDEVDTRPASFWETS

[24] = molecular target: panel of 468 diverse kinases (Homo sapiens, UniProt P42336, I800L); details: PIK3CA(I800L); 1000 nM; read-out: Percent Control
[25] = molecular target: panel of 468 diverse kinases (Homo sapiens, UniProt P07949, M918T); details: RET(M918T); 1000 nM; read-out: Percent Control
Sequence of panel of 468 diverse kinases (Homo sapiens, UniProt P07949, M918T) (P07949 29-1114 M918T limits assumed): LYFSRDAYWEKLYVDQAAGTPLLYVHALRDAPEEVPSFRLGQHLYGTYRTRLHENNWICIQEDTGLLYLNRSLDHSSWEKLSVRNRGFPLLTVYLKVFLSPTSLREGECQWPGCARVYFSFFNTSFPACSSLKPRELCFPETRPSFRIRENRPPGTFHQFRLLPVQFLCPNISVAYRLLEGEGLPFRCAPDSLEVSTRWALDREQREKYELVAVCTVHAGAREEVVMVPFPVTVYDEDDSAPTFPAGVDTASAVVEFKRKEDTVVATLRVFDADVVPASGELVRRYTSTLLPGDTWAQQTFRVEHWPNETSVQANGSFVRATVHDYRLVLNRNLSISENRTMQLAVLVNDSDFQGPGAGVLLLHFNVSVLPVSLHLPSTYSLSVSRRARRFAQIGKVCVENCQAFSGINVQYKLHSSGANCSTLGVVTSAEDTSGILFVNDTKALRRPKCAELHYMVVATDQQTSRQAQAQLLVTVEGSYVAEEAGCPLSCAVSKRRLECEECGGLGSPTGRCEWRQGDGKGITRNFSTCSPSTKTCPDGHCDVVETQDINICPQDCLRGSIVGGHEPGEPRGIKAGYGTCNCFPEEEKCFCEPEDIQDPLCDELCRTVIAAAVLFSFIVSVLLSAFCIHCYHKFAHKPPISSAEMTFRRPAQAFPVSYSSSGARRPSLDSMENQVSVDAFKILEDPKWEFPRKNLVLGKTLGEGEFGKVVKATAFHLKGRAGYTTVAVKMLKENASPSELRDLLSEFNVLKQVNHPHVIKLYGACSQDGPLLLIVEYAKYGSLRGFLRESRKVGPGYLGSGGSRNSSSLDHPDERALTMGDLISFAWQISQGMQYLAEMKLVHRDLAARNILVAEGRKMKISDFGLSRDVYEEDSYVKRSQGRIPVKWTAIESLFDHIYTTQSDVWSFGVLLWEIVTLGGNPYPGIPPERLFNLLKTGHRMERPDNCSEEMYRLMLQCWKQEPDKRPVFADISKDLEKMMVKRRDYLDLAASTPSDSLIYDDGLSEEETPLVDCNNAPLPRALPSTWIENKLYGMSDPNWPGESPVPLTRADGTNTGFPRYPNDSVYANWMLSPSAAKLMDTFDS

[26] = molecular target: panel of 468 diverse kinases (Homo sapiens, UniProt Q13164); details: ERK5; 1000 nM; read-out: Percent Control
[27] = molecular target: panel of 468 diverse kinases (Homo sapiens, UniProt Q7KZI7); details: MARK2; 1000 nM; read-out: Percent Control
[28] = molecular target: panel of 468 diverse kinases (Homo sapiens, UniProt Q8IWQ3); details: BRSK2; 1000 nM; read-out: Percent Control
[29] = molecular target: panel of 468 diverse kinases (Homo sapiens, UniProt Q15349); details: 1000 nM, read-out: Percent Control
[30] = molecular target: panel of 468 diverse kinases (Homo sapiens, UniProt Q7L7X3); details: TAOK1; 1000 nM; read-out: Percent Control

`COc1cc2nc(NC3CC3)nc(NC3CCN(C(C)C)CC3)c2cc1OC` [Formula IV] was tested, and the remaining activity at 1 µM [1] was 82%, the remaining activity at 1 µM ([2]; ABL1(Q252H)-nonphosphorylated) was 84% and the remaining activity at 1 µM ([2]; ABL1(Q252H)-phosphorylated) was 69%. It also gave a remaining activity at 1 µM [3] of 63%, a remaining activity at 1 µM [4] of 97% and a remaining activity at 1 µM [5] of 96%. The remaining activity at 1 µM [6] was 78%, the remaining activity at 1 µM [7] was 91% and the remaining activity at 1 µM [8] was 75%. For the same compound, the remaining activity at 1 µM [9] was 99%, the remaining activity at 1 µM [10] was 98% and the remaining activity at 1 µM [11] was 77%. The remaining activity at 1 µM [12] was 97%, the remaining activity at 1 µM [13] was 72% and the remaining activity at 1 µM [14] was 51%. It also gave a remaining activity at 1 µM [15] of 92%, a remaining activity at 1 µM [16] of 94% and a remaining activity at 1 µM [17] of 100%. It also gave a remaining activity at 1 µM [18] of 86%, a remaining activity at 1 µM [19] of 100% and a remaining activity at 1 µM [20] of 86%. For the same compound, the remaining activity at 1 µM [21] was 66%, the remaining activity at 1 µM [22] was 85% and the remaining activity at 1 µM [23] was 96%. The remaining activity at 1 µM [24] was 94%, the remaining activity at 1 µM [25] was 85% and the remaining activity at 1 µM [26] was 86%. The remaining activity at 1 µM [27] was 100%, the remaining activity at 1 µM [28] was 100% and the remaining activity at 1 µM ([29]; RSK3(Kin.Dom.1-N-terminal)) was 93%. For the same compound, the remaining activity at 1 µM ([29]; RSK3(Kin.Dom.2-C-terminal)) was 81% and the remaining activity at 1 µM [30] was 100%.
